From patent publication US10610537B2, “Methods of producing sialooligosaccharides and uses thereof” (MASAYOSHI LTD., priority 2016, dated 2020) come the findings set out here.

The subject of one assay is IGF-1. The assay can be described thus: Ability to promote the production of insulin-like growth factor-1 (IGF-1) in mice. The settings on record: mice (n=5), in drinking water, 5 mg/kg weight/day, 3 weeks, ELISA; untreated control 0.03. It is filed as in vivo. How it is done:
Each of the test substances produced in Example 1 and the reference standard of sialic acid (N-acetylneuraminic acid produced by Wako Pure Chemical Industries, Ltd. and having a product number of 011-26173) was dissolved in drinking water, and after adjustment of their concentrations, the individual solutions were administered to mice (n=5); the test substances were administered at 5 mg/kg weight/day. After rearing for 3 weeks, the concentration of IGF-1 in peripheral blood was examined by ELISA method.
For orientation: An ELISA detects its analyte on a solid surface through an enzyme-linked reagent.

The test system of another assay is NIH3T3 cells. The assay can be described thus: Cell-proliferative activity, NIH3T3 cells (MTT assay method, Cell Counting Kit-8). It is filed as cell-based. The following applies: for Cell proliferation rate: 24 hours, no addition taken as 100. How it is done: NIH3T3 cells were cultured in a 96-well microplate to give a cell density of 10^5 cells/well, and solutions of concentration-adjusted test substance 1 and reference standard of sialic acid (N-acetylneuraminic acid produced by Wako Pure Chemical Industries, Ltd. and having a product number of 011-26173) were each added in an amount of 10 μl, followed by culture in a CO2 incubator for 24 hours (37° C., 4.5% CO2). Cell proliferation was measured by the MTT assay method using a kit (Cell Counting Kit-8 produced by DOJINDO Corporation and having a product number of 347-07621).
The cell proliferation rate was calculated at the respective additive concentrations of the test substance 1, with the value for no addition (0 mg/ml) of the test substance 1 being taken as 100.
The cell proliferation rate was calculated at the respective additive concentrations of the reference standard of sialic acid, with the value for no addition (0 mg/ml) of the reference standard of sialic acid being taken as 100.
Background: Tetrazolium dyes change colour on reduction, which living cells bring about.

In the case of `CC(=O)N[C@H]1[C@H]([C@H](O)[C@H](O)CO)OC(O)(C(=O)O)C[C@@H]1O` (some centres unmarked) [Reference standard of sialic acid, N-acetylneuraminic acid], the “IGF-1 concentration in peripheral blood” value in the assay on IGF-1 amounted to 4.4 µg/mL. Besides, the Cell proliferation rate is reported as 96 with NIH3T3 cells (additive concentration 0.08 mg/ml); 98 in the assay on NIH3T3 cells (additive concentration 0.31 mg/ml); 101 in the assay with NIH3T3 cells (additive concentration 1.25 mg/ml); 98 in the assay with NIH3T3 cells (additive concentration 2.5 mg/ml); 99 in the assay on NIH3T3 cells (additive concentration 5.0 mg/ml); 102 with NIH3T3 cells (additive concentration 10.0 mg/ml). For the same compound, the “Change in cell proliferation rate (in words)” value in the assay on NIH3T3 cells (additive concentrations up to 10.0 mg/ml) is “No change was recognized in the proliferation rate”.
